From patent US12617788B2, “Bridged bicyclic compounds as BTK inhibitors” (Beijing InnoCare Pharma Tech Co., Ltd., priority 2020, dated 2026)

What was measured:
[1] = target: T1, human-derived recombinant BTK protein (Homo sapiens, UniProt Q06187); experiment: BTK activity inhibition assay (HTRF kinase assay); assay type: biochemical; details: 40 μM ATP
T1 construct: purchased Carna Biosciences 08-180
Experimental: In vitro kinase assay was used to evaluate the effects of compounds of the present invention on BTK activity (Table 1).
By using the homogeneous time-resolved fluorescence (HTRF) kinase detection kit (Cisbio, catalog number 62TK0PEC), the enzymatic activity of BTK is determined by detecting the phosphorylation level of the substrate in the kinase reaction. […]
(§1) Add 4 μL test compound solution and 2 μL kinase reaction solution to a 384-well detection plate (Corning, catalog number 3674), mix well and incubate at room temperature for 15 minutes; add 4 μL substrate reaction solution and incubate for 50 minutes; add 10 μL detection buffer, mix well and stand for 60 minutes; detect signal at 620 nm and 665 nm using an Envision plate reader (Perkin Elmer). The signal value (absorbance at 665 nm/absorbance at 620 nm) is positively correlated with the degree of phosphorylation of the substrate, thereby detecting the kinase activity of BTK. […] The inhibition curve is plotted and the corresponding IC50 value of the test compound is calculated using XLfit software (ID Business Solutions Ltd., UK).

[2] = target: T2, human recombinant BTK C481S protein (Homo sapiens, UniProt Q06187, C481S); experiment: BTK C481S activity inhibition assay (HTRF kinase assay); assay type: biochemical; details: 35 μM ATP
T2 construct: made in house
T2 sequence (Q06187 whole entry C481S): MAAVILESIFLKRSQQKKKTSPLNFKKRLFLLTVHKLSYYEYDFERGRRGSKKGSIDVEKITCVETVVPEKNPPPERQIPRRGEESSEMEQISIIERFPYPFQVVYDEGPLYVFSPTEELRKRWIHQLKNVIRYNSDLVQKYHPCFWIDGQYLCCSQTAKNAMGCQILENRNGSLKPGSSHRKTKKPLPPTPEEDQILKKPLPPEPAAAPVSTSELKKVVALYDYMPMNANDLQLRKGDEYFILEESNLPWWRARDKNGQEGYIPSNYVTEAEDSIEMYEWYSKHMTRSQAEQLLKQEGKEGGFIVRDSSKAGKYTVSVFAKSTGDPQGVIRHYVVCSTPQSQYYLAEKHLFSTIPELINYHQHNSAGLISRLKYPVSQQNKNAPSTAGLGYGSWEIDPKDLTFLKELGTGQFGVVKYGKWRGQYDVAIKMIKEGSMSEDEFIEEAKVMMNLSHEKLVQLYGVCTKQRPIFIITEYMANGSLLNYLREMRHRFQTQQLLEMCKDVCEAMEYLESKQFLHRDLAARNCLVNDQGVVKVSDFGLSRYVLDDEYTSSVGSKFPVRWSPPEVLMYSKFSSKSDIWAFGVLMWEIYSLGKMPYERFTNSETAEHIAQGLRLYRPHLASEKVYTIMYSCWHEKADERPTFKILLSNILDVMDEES
Experimental: In vitro kinase assay was used to evaluate the effects of compounds of the present invention on BTK C481S activity (Table 1).
By using the homogeneous time-resolved fluorescence (HTRF) kinase detection kit (Cisbio, catalog number 62TK0PEC), the enzymatic activity of BTK C481S is determined by detecting the phosphorylation level of the substrate in the kinase reaction. […]
as §1, with “BTK C481S.” for “BTK.”

[3] = Brain penetration activity test in rats; assay type: in vivo; details: for Brain penetration (result in words): male Sprague Dawley rats, oral 5 mg/kg; for Kp at 8 h: male, Sprague Dawley, rat, brain tissue homogenate / plasma, po, 5 mg/kg, AUCbrain/AUCplasma, samples at 1, 2, 4 and 8 hours
Experimental: “CSF/plasma ratio (Kp, CSF)” refers to the ratio of a compound concentration in cerebrospinal fluid (CSF) vs. in plasma. The ability of a compound to cross blood-brain barrier (BBB) is assessed by measuring its concentrations in CSF and plasma in rodents, and determining the ratio (Kp, CSF).
Compound A or B in a 0.5 mg/mL solution containing 5% N,N-dimethylacetamide+10% solutol+85% saline was orally administered to twelve male Sprague Dawley rats at a dose of 5 mg/kg. Samples of plasma, brain tissue homogenate (for measuring Kp, brain) and cerebrospinal fluid (for measuring Kp, CSF) were collected at 1, 2, 4 and 8 hours after administration (from three animals at each time point).
The concentrations of the compound in plasma, brain tissue homogenate, and CSF were quantified by LC-MS/MS using an API-4500 mass spectrometer, respectively. The limit of quantification (LOQ) of analysis was 1 ng/mL. The pharmacokinetic (PK) parameters were calculated by the non-compartmental method using WinNonlin. Each of Kp, brain and Kp, CSF was calculated as AUCbrain/AUCplasma and AUCCSF/AUCplasma, respectively.

T1 sequence (Q06187 whole entry): as the sequence (Q06187 whole entry C481S) above, with S481C counted along it

SMILES	IC50 [1] [nM]	IC50 [2] [nM]	Brain penetration (result in words) [3]	Kp at 8 h [3]
COc1ccc(F)cc1C(=O)NCc1ccc(-c2nc(C34CCC(C(=O)N5CCOCC5)(CC3)CC4)n3ncnc(N)c23)cc1 [Compound B, N-(4-(4-amino-7-(4-(morpholine-4-carbonyl)bicyclo[2.2.2]octan-1-yl)imidazo[5,1-f][1,2,4]triazin-5-yl)benzyl)-5-fluoro-2-methoxybenzamide]	1	1.2	non-brain penetrants	0.0315
COc1ccc(F)cc1C(=O)NCc1ccc(-c2nc(C34CCC(C(=O)O)(CC3)CC4)n3ncnc(N)c23)cc1 [Compound A, 4-(4-amino-5-(4-((5-fluoro-2-methoxybenzamido)methyl)phenyl)imidazo[5,1-f][1,2,4]triazin-7-yl)bicyclo[2.2.2]octane-1-carboxylic acid]	0.7	1.3	non-brain penetrants	0.0355
